Laboratory results taken from patent publication US20180298024A1, “CORTISTATIN ANALOGS AND USES THEREOF” (President and Fellows of Harvard College, priority 2015, published 2018).
Where “and” joins values, the source holds several entries; their conditions need not be identical. Equal entries are not always repeated.

Experiments:
Dopamine Transporter = biological target: T1, Dopamine Transporter (Homo sapiens, UniProt Q01959); assay: Panlab assay, Dopamine Transporter; assay type: binding
T1 construct: Eurofins Panlabs
Description: Compounds A, B, C, and D were tested in Panlab assays to evaluate potential off-target activity using standard assay kits. Methods employed in these studies have been adapted from the scientific literature to maximize reliability and reproducibility.
IC50 values were determined by a non-linear, least squares regression analysis using MathIQ™ (ID Business Solutions Ltd., UK). […] Where presented, the Hill coefficient (nH), defining the slope of the competitive binding curve, was calculated using MathIQ™.

320 protein kinases = assay: 33PanQinase radiometric kinase assay, kinome profiling; assay type: biochemical, human; details: 1 μM; 320 kinases; initial test
Description: (§1) A radiometric protein kinase assay (33PanQinase Activity Assay) was used for measuring the kinase activity of the 320 protein kinases. All kinase assays were performed in 96-well FlashPlates™ from Perkin Elmer (Boston, Mass., USA) in a 50 μl reaction volume. The reaction cocktail was pipetted in 4 steps in the following order: • 1. 10 μl of non-radioactive ATP solution (in H2O) • 2. 25 μl of assay buffer/[γ-33P]-ATP mixture • 3. 5 μl of test sample in 10% DMSO • 4. 10 μl of enzyme/substrate mixture
(§2) All PKC assays (except the PKC-mu and the PKC-nu assay) additionally contained 1 mM CaCl2, 4 mM EDTA, 5 μg/ml phosphatidylserine and 1 μg/ml 1,2-dioleyl-glycerol.
The CAMKID, CAMK2A, CAMK2B, CAMK2D, CAMK4, CAMKK1, CAMKK2, DAPK2, EEF2K, MYLK, MYLK2 and MYLK3 assays additionally contained 1 μg/ml Calmodulin and 0.5 mM CaCl2). […] Incorporation of 33Pi (counting of “cpm”) was determined with a microplate scintillation counter (Microbeta, Wallac). […]
Kinases from external vendors CAR=Carna Biosciences Inc.; INV=Life Technologies (Invitrogen Corporation); MIL=Merck-Millipore (Millipore Corporation) were expressed, purified and quality-controlled by virtue of the vendors readings.
For each kinase, the median value of the cpm of three wells was defined as “low control” (n=3). […] The residual activity (in %) for each compounds well was calculated by using the following formula: […]

CAMK2B = biological target: T2, CAMK2B (Homo sapiens, UniProt Q13554); assay: 33PanQinase radiometric kinase assay, CAMK2B; assay type: biochemical
T2 construct: purchased ProQinase; host or cells: Sf9 insect cells or E. coli
Description: as §1, §2
(§3) The CAMKID, CAMK2A, CAMK2B, CAMK2D, CAMK4, CAMKK1, CAMKK2, DAPK2, EEF2K, MYLK, MYLK2 and MYLK3 assays additionally contained 1 μg/ml Calmodulin and 0.5 mM CaCl2). The PRKG1 and PRKG2 assays additionally contained 1 μM cGMP. The DNA-PK assay additionally contained 2.5 μg/ml DNA. The protein kinase reaction cocktails were incubated at 30° C. for 60 minutes. The reaction was stopped with 50 μl of 2% (v/v) H3PO4, plates were aspirated and washed two times with 200 μl 0.9% (w/v) NaCl. Incorporation of 33Pi (counting of “cpm”) was determined with a microplate scintillation counter (Microbeta, Wallac). All protein kinase assays were performed with a BeckmanCoulter Biomek 2000/SL robotic system.
(§4) All protein kinases provided by ProQinase were expressed in Sf9 insect cells or in E. coli as recombinant GST-fusion proteins or His-tagged proteins, either as full-length or enzymatically active fragments. All kinases were produced from human cDNAs and purified by either GSHaffinity chromatography or immobilized metal. Affinity tags were removed from a number of kinases during purification. […]
(§5) For each kinase, the median value of the cpm of three wells was defined as “low control” (n=3). This value reflects unspecific binding of radioactivity to the plate in the absence of a protein kinase but in the presence of the substrate. […] The residual activity (in %) for each compounds well was calculated by using the following formula: […]

MUSK = biological target: T3, MUSK (Homo sapiens, UniProt O15146); assay: 33PanQinase radiometric kinase assay, MUSK; assay type: biochemical
T3 construct: purchased ProQinase; host or cells: Sf9 insect cells or E. coli
T3 sequence (O15146 24-869): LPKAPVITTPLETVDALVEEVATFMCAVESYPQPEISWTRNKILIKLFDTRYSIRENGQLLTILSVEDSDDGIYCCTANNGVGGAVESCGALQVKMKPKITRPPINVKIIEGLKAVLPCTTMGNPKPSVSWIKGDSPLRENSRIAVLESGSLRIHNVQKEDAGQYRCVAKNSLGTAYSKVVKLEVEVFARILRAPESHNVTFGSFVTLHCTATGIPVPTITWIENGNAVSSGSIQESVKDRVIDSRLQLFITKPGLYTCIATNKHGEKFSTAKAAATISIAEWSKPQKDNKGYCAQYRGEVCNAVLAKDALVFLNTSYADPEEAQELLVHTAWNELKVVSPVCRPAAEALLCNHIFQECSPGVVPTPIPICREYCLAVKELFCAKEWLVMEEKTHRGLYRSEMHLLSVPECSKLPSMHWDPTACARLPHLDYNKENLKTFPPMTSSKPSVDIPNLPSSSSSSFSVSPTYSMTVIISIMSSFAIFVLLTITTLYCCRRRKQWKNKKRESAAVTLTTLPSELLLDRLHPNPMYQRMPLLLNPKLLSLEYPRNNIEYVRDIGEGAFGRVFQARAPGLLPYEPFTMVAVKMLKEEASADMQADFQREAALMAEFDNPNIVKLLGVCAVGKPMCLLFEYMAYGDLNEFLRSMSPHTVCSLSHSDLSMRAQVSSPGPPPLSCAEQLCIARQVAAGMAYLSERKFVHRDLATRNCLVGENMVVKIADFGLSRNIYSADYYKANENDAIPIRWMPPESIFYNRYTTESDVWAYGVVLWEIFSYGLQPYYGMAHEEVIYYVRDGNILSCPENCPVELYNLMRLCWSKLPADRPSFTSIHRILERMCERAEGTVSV
Description: as §1, §2, §3, §4, §5

K562 = assay: Half-maximal growth inhibition (GI50), K562; assay type: cell-based; details: Homo sapiens, 240 h, CML, BCR-Abl, read-out: GI50 (nM), day 10
Description: Compounds A, B, C, D, and F were tested against various cell lines to probe their broad utility against cancer. Cortistatin A (CA) was also tested against the cell lines in a head to head fashion.

T1 sequence (Q01959 whole entry): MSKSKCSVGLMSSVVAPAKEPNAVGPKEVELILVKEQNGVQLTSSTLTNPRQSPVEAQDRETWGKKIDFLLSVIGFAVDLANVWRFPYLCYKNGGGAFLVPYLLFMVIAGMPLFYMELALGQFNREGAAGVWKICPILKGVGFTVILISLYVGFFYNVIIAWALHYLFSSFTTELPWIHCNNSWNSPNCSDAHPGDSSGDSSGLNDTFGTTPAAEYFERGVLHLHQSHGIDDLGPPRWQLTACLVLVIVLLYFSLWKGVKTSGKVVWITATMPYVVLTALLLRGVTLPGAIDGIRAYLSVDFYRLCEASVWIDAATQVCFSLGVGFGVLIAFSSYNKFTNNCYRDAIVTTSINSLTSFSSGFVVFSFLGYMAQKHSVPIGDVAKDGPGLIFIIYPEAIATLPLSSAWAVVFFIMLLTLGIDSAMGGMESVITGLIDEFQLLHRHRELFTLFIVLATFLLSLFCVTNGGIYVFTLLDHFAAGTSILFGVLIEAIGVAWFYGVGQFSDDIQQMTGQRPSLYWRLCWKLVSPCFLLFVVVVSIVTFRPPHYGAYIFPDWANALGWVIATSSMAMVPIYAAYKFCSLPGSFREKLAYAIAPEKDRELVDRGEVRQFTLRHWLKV

Row | Compound | IC50 (Dopamine Transporter) [µM] | nH (Hill coefficient), Dopamine Transporter (Dopamine Transporter) | Ki (Dopamine Transporter; Cheng and Prusoff) [µM] | number of kinases with an average of >50% inhibition (320 protein kinases) | inhibition at 1 µM (CAMK2B; 1 μM, 2 replicates, read-out: average percent inhibition of CAMK2B) [%] | percent inhibition of CAMK2B, replicates (CAMK2B; 1 μM, single replicates) | inhibition of CAMK2B upon retesting (CAMK2B; up to 10 μM) | inhibition at 1 µM (MUSK; 1 μM, 2 replicates, read-out: average percent inhibition of MUSK) [%] | percent inhibition of MUSK, replicates (MUSK; 1 μM, single replicates) | inhibition of MUSK upon retesting (MUSK; up to 10 μM) | GI50 (K562) [nM]
1 | C[C@]12CC=C3C=C4CC[C@@H](O)C[C@]45CC[C@]3(O5)[C@@H]1CC[C@@H]2c1ccc2ccncc2c1 [Compound A, (3S,3aR,9R,10aR,12aS,12bR)-3-(isoquinolin-7-yl)-3a-methyl-1,2,3,3a,4,7,8,9,10,11,12,12b-dodecahydro-10a,12a-epoxybenzo[4,5]cyclohepta[1,2-e]inden-9-ol] | 4.9 | 0.97 | 3.89 | 5 | > 50 | 36% and 79% | not inhibited | > 50 | 36% and 111% | not inhibited | 
2 | C[C@]12CC=C3C=C4CC[C@@H](N5C[C@H](O)[C@@H](O)C5)C[C@]45CC[C@]3(O5)[C@@H]1CC[C@@H]2c1ccc2ccncc2c1 [Compound D] |  |  |  |  |  |  |  |  |  |  | > 1000
